Measurements from patent publication US20240368133A1, “Compounds for the Treatment of Pain, in Particular, Neuropathic Pain, and/or Other Diseases or Disorders that are Associated with AT2R and/or AT2R Mediated Signaling” (Confo Therapeutics N.V., priority 2021, published 2024).

Columns and labels:
[1] = Caco-2 permeability assay; assay type: in vitro ADME; conditions: human; for efflux ratio at 90 min, 10 µM / recovery at 90 min, 10 µM: Caco-2, pH 7.4; for Papp A→B at 90 min, 10 µM: pH 7.4, Caco-2, AB
Protocol: Caco-2 cells were cultured in 75 cm^2 flasks to 80-90% confluence according to the ATCC and Millipore recommendations (Arena A. et al., 2003) in humidified atmosphere at 37° C. and 5% CO2. Cells were detached with Trypsin/EDTA solution and resuspended in the cell culture medium to a final concentration of 2×10^5 cells/ml. 500 μl of the cell suspension was added to each well of HTS 24-Multiwell Insert System and 1000 μl of prewarmed complete medium was added to each well of the feeder-plate. Caco-2 cells were incubated in Multiwell Insert System for 21 days before the transport experiments. The medium in filter plate and feeder tray was refreshed every other day. After 21 days of the cell growth, the integrity of the monolayer was verified by measuring the transepithelial electrical resistance (TEER) for every well using the Millicell-ERS system ohm meter. The final TEER values were within the range 150-600 Ω×cm^2 (Srinivasan B. et al., 2015) as required for the assay conditions. 24-well insert plate was removed from its feeder plate and placed in a new sterile 24-well transport analysis plate. The inserts were washed with PBS after medium aspiration. To determine the rate of compounds transport in apical (A)-to-basolateral (B) direction, 300 μL of the test compound dissolved in transport buffer at 10 μM (HBSS, 25 mM HEPES, pH=7.4) was added into the filter wells; 1000 μL of buffer (HBSS, 25 mM HEPES, pH=7.4) was added to transport analysis plate wells. Propranolol, Atenolol, Quinidine and Digoxin were used as reference compounds. The plates were incubated for 90 min at 37° C. under continuous shaking at 50 rpm. 75 μL aliquots were taken from the donor and receiver compartments for LC-MS/MS analysis. All samples were mixed with 2 volumes of acetonitrile followed by protein sedimentation by centrifuging at 10000 rpm for 10 minutes. Supernatants were analyzed using the HPLC system coupled with tandem mass spectrometer. The apparent permeability (Papp) was calculated for Caco-2 permeability assay using the following equation:
• VA=volume of transport buffer in acceptor well • Area=surface area of the insert (equals to effective growth area of the insert −0.31 sq.cm) • Time=time of the assay • [drug]acc=concentration of test compound in acceptor well • [drug]initial,d=initial concentration of test compound in a donor well • Papp is expressed in 10^−6 cm/sec.
The % recovery can be useful in interpreting the Caco-2 data. If the recovery is very low, this may indicate poor solubility, binding of the compound to the test plate materials, metabolism by the Caco-2 cells, or accumulation of the compound in the cell monolayer. The % recovery was calculated using the following equation:
• Vacc=volume of compound solution in acceptor well […] • Vd=volume of compound solution in […] • Cacc=concentration of test compound in acceptor well (μM) • Cinitial,d=initial concentration of test compound in a donor well (μM)

[2] = Plasma protein binding (equilibrium dialysis), rat; assay type: in vitro ADME; conditions: for fraction unbound: equilibrium dialysis, read-out: PPB (%), rat (converted); for recovery: plasma (undiluted, freshly thawed), PPB assay recovery
Protocol: The assay was performed in a multiple-use 96-well dialysis unit (HTD96b dialyzer). Each individual well unit consisted of 2 chambers separated by a vertically aligned dialysis membrane of predetermined pore size (MWCO 12-14 kDa). 120 μl of non-diluted freshly thawed mouse, rat or human plasma spiked with the compound (1 μM, final DMSO concentration 1%) was added to one chamber and the same volume of PBS buffer pH 7.4 to the other chamber. HTD96b dialyzer was covered with adhesive sealing film and incubated at 37° C., shaking at 100 rpm for 5 hours.
For samples preparation, an aliquot of the content of each chamber had been mixed with the same volume of the blank opposite matrix. In order to define non-specific loss of the compound during this assay, a standard solution was created by mixing an aliquot of spiked plasma with blank buffer without dialysis. Samples were diluted 10-fold with 100% acetonitrile with subsequent plasma proteins sedimentation by centrifuging at 6000 rpm for 5 minutes. Supernatants were analyzed using HPLC system coupled with tandem mass spectrometer (API3000 PE Sciex). Acquisition and analysis of the data were performed using Analyst 1.5.2 software (PE Sciex). The percentage of plasma protein bound compound and recovery were calculated using following equations: […]
Prior to the start of the experiment, dialysis membranes (membrane strips, MW cut-off 12-14 kDa, HTDialysis, Cat.NoJl 101) are soaked in deionized water for 60 min, transferred and left overnight in 20% EtOH. The day of experiment, a 10 mM stock solution of the compound in DMSO is diluted with a factor 10 in DMSO. This solution is further diluted in freshly thawed human, rat, mouse or dog plasma (BioIVT) with a final concentration of 5 μM and final DMSO concentration of 0.5%.
From this solution, an aliquot of 50 μL was taken and matrix matched with an equivalent volume of PBS for the recovery plate, after which 6 volumes of STOP solution were added to the recovery plate. For these recovery plates, no incubation is done.
Equilibrium Dialysis Device (96-well, model HTD96b, HTDialysis, Cat. No. #1006) is assembled according to manufacturer's instructions. Immediately after assembly, a volume of 100 μL of plasma (spiked with compound) is placed on one side of the well and another 100 μL of blank PBS buffer are added to the other side, respectively. Each compound is tested in duplicate. Acebutolol and Nicardipine are used as low and very high binding controls, except for the mouse, Caffeine is used as low binder instead Acebutolol. If the PPB values for these controls are not in the range determined by the historical data, the assay is not validated.
The plate is incubated for 4 h at 37° C. while shaking at 230 rpm. Thereafter, an aliquot of 50 μL is taken from each side of the well and matrix matched (mix of equal volumes of spiked plasma with blank PBS buffer and samples from buffer compartment with blank plasma). Matrix matched samples are further mixed with 3 volumes of STOP solution (acetonitrile/MeOH 2/1 with diclofenac as internal standard). After brief mixing and centrifugation (at 2400 rpm for 15 min, at +4° C.), the supernatant is filtered and transferred into new 96-well plates for analysis on LC-MS/MS (systems API4000).
The percentage of plasma protein bound compound and recovery were calculated using following equations:
with: • Cplasma=peak area of the compound in the plasma/peak area of the IS in the plasma • Cbuffer=peak area of the compound in the buffer/peak area of the IS in the buffer • ‘Concentration’ is the ratio between compound and IS peak areas
The recovery is a control, which allows to be sure that the compound has not a non-specific binding to the plates or is not stable in the plasma in these conditions: […]

Row | recovery at 90 min, 10 µM [1] | Papp A→B at 90 min, 10 µM [1] | fraction unbound [2] | recovery [2] | SMILES | efflux ratio at 90 min, 10 µM [1]
1 | 77% | 2.8 ×10⁻⁶ cm/s | < 0.1 | 84% | CC(C)Cc1ccc(-c2nn[nH]n2)c(N2CCN(Cc3nc4ccccc4c(=O)[nH]3)CC2)c1 [Compound A-31, 2-[[4-[5-isobutyl-2-(2H-tetrazol-5-yl)phenyl]piperazin-1-yl]methyl]-3H-quinazolin-4-one] | –
2 | – | – | 0.004 | 98% | CC(C)Cc1cc(F)c(-c2nn[nH]n2)c(N2CCN(Cc3ccccn3)[C@@H](C)C2)c1 [Compound A-217, (2S)-4-[3-fluoro-5-isobutyl-2-(2H-tetrazol-5-yl)phenyl]-2-methyl-1-(2-pyridylmethyl)piperazine] | –
3 | – | – | 0.19 | 100% | CC(C)Cc1cc(F)c(-c2nn[nH]n2)c(N2CCN(Cc3cccnn3)C(C)C2)c1 (centres unmarked) [Compound A-173, 3-[[4-[3-fluoro-5-isobutyl-2-(2H-tetrazol-5-yl)phenyl]-2-methyl-piperazin-1-yl]methyl]pyridazine] | –
4 | – | – | 0.12 | 96% | CCC1CN(Cc2cccnn2)CCN1c1cc(CC(C)C)cc(F)c1-c1nn[nH]n1 (centres unmarked) [Compound A-181, 3-[[3-ethyl-4-[3-fluoro-5-isobutyl-2-(2H-tetrazol-5-yl)phenyl]piperazin-1-yl]methyl]pyridazine] | –
5 | 91% | < 3.4 ×10⁻⁶ cm/s | 0.23 | 105% | CC(C)Cc1ccc(-c2nn[nH]n2)c(N2CCN(Cc3cccnn3)CC2)c1 [Compound A-90, 3-[[4-[5-isobutyl-2-(2H-tetrazol-5-yl)phenyl]piperazin-1-yl]methyl]pyridazine] | –
6 | 90% | 0.15 ×10⁻⁶ cm/s | 0.017 | 90% | CC(C)Cc1cc(F)c(-c2nn[nH]n2)c(N2CCN(Cc3cccnn3)[C@@H](C)C2)c1 [Compound A-174, 3-[[(2S)-4-[3-fluoro-5-isobutyl-2-(2H-tetrazol-5-yl)phenyl]-2-methyl-piperazin-1-yl]methyl]pyridazine] | 16
7 | – | – | 0.23 | 92% | CC(C)Cc1cc(F)c(-c2nn[nH]n2)c(N2CC(C)N(Cc3cccnn3)CC2C)c1 (centres unmarked) [Compound A-183, 3-[[4-[3-fluoro-5-isobutyl-2-(2H-tetrazol-5-yl)phen-yl]-2,5-dimethyl-piperazin-1-yl]-methyl]pyridazine] | –

Row | SMILES | recovery at 90 min, 10 µM [1] | Papp A→B at 90 min, 10 µM [1] | fraction unbound [2] | recovery [2] | efflux ratio at 90 min, 10 µM [1]
8 | CCC1CN(c2cc(CC(C)C)cc(F)c2-c2nn[nH]n2)CCN1Cc1cccnn1 (centres unmarked) [Compound A-178, 3-[[2-ethyl-4-[3-fluoro-5-isobutyl-2-(2H-tetrazol-5-yl)phenyl]piperazin-1-yl]methyl]pyridazine] | 94% | 1.2 ×10⁻⁶ cm/s | 0.12 | 96% | 7.2
